Reference: publication PMC11045757, “Group 3 medulloblastoma transcriptional networks collapse under domain specific EP300/CBP inhibition” (Nature Communications, 2024)

System: 460 barcoded cancer cell lines
Assay: PRISM pooled barcoded cancer cell line growth screen, 10-point dose-response, 5 days, AUC
Format: cell-based
Design: scale not given here
Text: Several small molecule inhibitors of distinct protein domains of EP300/CBP are available, though the majority target the histone acetyltransferase domain (HAT) or bromodomain (BRD)[5],[10],[21],[22]. […] We used these tools to investigate the relative contribution of the EP300/CBP BRD or HAT domain to tumor cell growth (Fig. 1a). To do so, we performed 10-point, dose-response growth assays using mixed pools of 460 barcoded cancer cell lines, over five days of treatment in vitro[33],[34]. Growth was measured using an area-under-the-curve (AUC) approach (Supplementary Table 1, Supplementary Fig. 1a). […] Given potential differences in compound penetration and solubility, and to compare the relative cell line and tumor-specific effects of these two compounds in assays performed non-simultaneously, we performed a median normalization of each dataset (Supplementary Table 2).

CNC(=O)Nc1ccc2c(c1)CCC21OC(=O)N(CC(=O)N(Cc2ccc(F)cc2)C(C)C(F)(F)F)C1=O (stereo not shown) [Compound A485]
AUC (MG63, Osteosarcoma): 0.9115 | AUC (MHHES1, Ewing Sarcoma): 0.4553 | AUC (MHHNB11, Neuroblastoma): 0.7182 | AUC (MIAPACA2, Pancreatic Cancer): 0.9009 | AUC (MKN1, Gastric Cancer): 0.9671 | AUC (MKN7, Gastric Cancer): 0.9501 | AUC (MKN45, Gastric Cancer): 0.5235 | AUC (MOLM13, AML): 0.5776 | AUC (MOLM16, AML): 1 | AUC (MOLT3, T-acute leukemia): 0.8162 | AUC (MOLT16, T-acute leukemia): 0.9273 | AUC (MON, Rhabdoid): 0.6327 | AUC (NB1, Neuroblastoma): 0.493 | AUC (NB4, AML): 1 | AUC (NCIH23, Lung Cancer): 0.8307 | AUC (NCIH28, Lung Cancer): 0.8488 | AUC (NCIH82, Lung Cancer): 1 | AUC (NCIH196, Lung Cancer): 0.825 | AUC (NCIH211, Lung Cancer): 0.6824 | AUC (NCIH226, Lung Cancer): 0.8402 | AUC (NCIH292, Lung Cancer): 0.7841 | AUC (NCIH322, Lung Cancer): 0.7616 | AUC (NCIH358, Lung Cancer): 0.8611 | AUC (NCIH441, Lung Cancer): 0.8818 | AUC (NCIH460, Lung Cancer): 0.9648 | AUC (NCIH520, Lung Cancer): 0.9521 | AUC (NCIH524, Lung Cancer): 0.8317 | AUC (NCIH596, Lung Cancer): 0.8954 | AUC (NCIH647, Lung Cancer): 1 | AUC (NCIH650, Lung Cancer): 0.8159 | AUC (NCIH661, Lung Cancer): 0.6677 | AUC (NCIH747, Colon/Colorectal Cancer): 0.838 | AUC (NCIH841, Lung Cancer): 0.8663 | AUC (NCIH1048, Lung Cancer): 0.8631 | AUC (NCIH1299, Lung Cancer): 0.8424 | AUC (NCIH1341, Lung Cancer): 1 | AUC (NCIH1373, Lung Cancer): 0.7413 | AUC (NCIH1437, Lung Cancer): 0.6724 | AUC (NCIH1568, Lung Cancer): 0.921 | AUC (NCIH1573, Lung Cancer): 0.8005 | AUC (NCIH1581, Lung Cancer): 0.7694 | AUC (NCIH1648, Lung Cancer): 0.776 | AUC (NCIH1792, Lung Cancer): 0.691 | AUC (NCIH1793, Lung Cancer): 0.7572 | AUC (NCIH1838, Lung Cancer): 0.8275 | AUC (NCIH1930, Lung Cancer): 1 | AUC (NCIH1944, Lung Cancer): 0.8729 | AUC (NCIH1975, Lung Cancer): 0.8115 | AUC (NCIH2004RT, Rhabdoid): 0.9741 | AUC (NCIH2052, Lung Cancer): 0.6997 | AUC (NCIH2122, Lung Cancer): 0.4802 | AUC (NCIH2170, Lung Cancer): 0.9434 | AUC (NCIH2172, Lung Cancer): 0.8484 | AUC (NCIH2196, Lung Cancer): 0.8734 | AUC (NCIH2228, Lung Cancer): 0.7811 | AUC (NCIH2347, Lung Cancer): 0.6039 | AUC (NCIH2444, Lung Cancer): 0.8316 | AUC (NCO2, CML): 0.8351 | AUC (NIHOVCAR3, Ovarian Cancer): 0.9964 | AUC (NUDHL1, Lymphoma): 0.9213 | AUC (NUGC3, Gastric Cancer): 0.8775 | AUC (OAW42, Ovarian Cancer): 0.7266 | AUC (OC314, Ovarian Cancer): 0.891 | AUC (OC316, Ovarian Cancer): 0.9187 | AUC (OCIAML2, AML): 0.6159 | AUC (OCIAML3, AML): 0.7819 | AUC (OCILY19, Lymphoma): 0.6711 | AUC (OCILY132, T-cell lymphoma): 0.9357 | AUC (OCIM1, AML): 0.6185 | AUC (OE19, Esophageal Cancer): 0.9392 | AUC (OE21, Esophageal Cancer): 0.6998 | AUC (ONCODG1, Ovarian Cancer): 0.9734 | AUC (ONS76, Medulloblastoma): 0.7969 | AUC (OSRC2, Kidney Cancer): 0.9758 | AUC (OV56, Ovarian Cancer): 0.9822 | AUC (OVCAR8, Ovarian Cancer): 0.8889 | AUC (OVISE, Ovarian Cancer): 0.951 | AUC (OVK18, Ovarian Cancer): 0.5397 | AUC (OVKATE, Ovarian Cancer): 0.8663 | AUC (OVTOKO, Ovarian Cancer): 0.8262 | AUC (PANC0203, Pancreatic Cancer): 0.6928 | AUC (PANC0327, Pancreatic Cancer): 0.889 | AUC (PANC0403, Pancreatic Cancer): 0.6894 | AUC (PANC0504, Pancreatic Cancer): 0.8448 | AUC (PANC0813, Pancreatic Cancer): 0.8655 | AUC (PATU8902, Pancreatic Cancer): 0.9465 | AUC (PC3, Prostate Cancer): 0.8494 | AUC (PECAPJ15, Head and Neck Cancer): 0.6653 | AUC (PF382, T-acute leukemia): 0.7674 | AUC (PK1, Pancreatic Cancer): 0.6974 | AUC (PK59, Pancreatic Cancer): 0.9772 | AUC (PSN1, Pancreatic Cancer): 0.6172 | AUC (RCM1, Colon/Colorectal Cancer): 0.8245 | AUC (RD, Rhabdomyosarcoma): 0.8188 | AUC (RDES, Ewing Sarcoma): 0.6507 | AUC (RERFLCAI, Lung Cancer): 0.874 | AUC (RERFLCKJ, Lung Cancer): 0.7393 | AUC (RH4, Rhabdomyosarcoma): 0.678 | AUC (RH28, Rhabdomyosarcoma): 1 | AUC (RH36, Rhabdomyosarcoma): 1 | AUC (RHJT, Rhabdomyosarcoma): 1 | AUC (RI1, B-cell Lymphoma): 0.6781 | AUC (RL952, Endometrial/Uterine Cancer): 0.946 | AUC (RL, B-cell Lymphoma): 0.7056 | AUC (RPMI8402, T-acute leukemia): 0.6488 | AUC (RT4, Bladder Cancer): 0.8068 | AUC (RVH421, Melanoma): 0.6261 | AUC (S117, Thyroid Sarcoma): 0.733 | AUC (SAOS2, Osteosarcoma): 0.6843 | AUC (SCABER, Bladder Cancer): 0.7254 | AUC (SCC9, Head and Neck Cancer): 0.6982 | AUC (SCC25, Head and Neck Cancer): 0.8637 | AUC (SCLC21H, Lung Cancer): 0.7482 | AUC (SEM, B-cell Leukemia): 0.591 | AUC (SF539, Glioma): 0.7626
